# Like-named read-outs stand apart in the source and are kept apart here.
# Tests used:
# [1] = system: Salmonella typhimurium TA100; conditions: for Revertants per well TA100, Mean: * positive increase
# Protocol: (§1) The tester strains used in the mutagenicity assay were Salmonella typhimurium tester strains TA98 (for detecting frame-shift reverse mutation) and TA100 (for detecting point reverse mutation). The assay was conducted in both the presence and absence of S9 mixture along with concurrent vehicle (DMSO, 20 μl/well) and positive controls in duplicate using 6-well plates. […] A reproducible two-fold increase (>2× of vehicle control) of revertant colonies over the daily average control value is considered a positive response of gene mutation for each strain.
# (§2) 2-nitrofluorene and sodium azide served as the positive controls in the absence of S9 for TA98 and TA100 respectively. 2-Aminoanthracene served as the positive controls in the presence of S9 for TA98 and TA100.
# [2] = system: Salmonella typhimurium TA98; assay: Mini-Salmonella/mammalian-microsome reverse mutation assay TA98; conditions: for Revertants per well TA98, Mean: * positive increase
# Protocol: as §1, §2
# Raf, MEK, and ERK = assay: Western blot of RAF-MEK-ERK pathway in H460, A375, BT-474 and H1975 cells; format: cell-based; conditions: 100 nM, 16 hours
# Protocol: Cell extracts were prepared in the presence of SDS and 2-mercaptoethanol and resolved in polyacrylamide gels. Proteins were transferred to nitrocellulose filter and blotting was done using standard procedures with blocking solutions (Li-Cor Bioscience) containing the indicated primary antibody. Primary antibodies against p-EGFR, EGFR, p-HER2, HER2, p-HER3, HER3, p-MET, MET, p-bRaf, p-cRaf, pMEK, MEK, p-ERK, ERK and tubulin were purchased from Cell Signaling Technology. Secondary antibody conjugated with IRdye 680, 800CW were used and the signal was detected with Li-Cor Odyssey Imager.
# One major limitation of PI3K inhibitors in the treatment of cancers is the activation of the RAF-MEK-ERK pathway. HDAC inhibitors are able to inhibit kinase levels in this signaling pathway in cancer cells via epigenetic modification.
# [3] = +S9, positive control 0.8 μg/well
# [4] = −S9, positive control 0.4 μg/well
# [5] = −S9, positive control 2.0 μg/well
smiles,measurement,setting,value
"Nc1ccc2cc3ccccc3cc2c1 [2-aminoanthracene, reference compound]",Background Lawn TA100,[1]; [3],4/4
same,"Revertants per well TA100, well 1",[1]; [3],>300
same,"Revertants per well TA100, well 2",[1]; [3],>300
same,"Revertants per well TA100, Mean",[1]; [3],>300*
same,Background Lawn TA98,[2]; [3],4/4
same,"Revertants per well TA98, well 1",[2]; [3],>300
same,"Revertants per well TA98, well 2",[2]; [3],>300
same,"Revertants per well TA98, Mean",[2]; [3],>300*
"O=[N+]([O-])c1ccc2c(c1)Cc1ccccc1-2 [2-nitrofluorene, reference compound]",Background Lawn TA98,[2]; [4],4/4
same,"Revertants per well TA98, well 1",[2]; [4],55
same,"Revertants per well TA98, well 2",[2]; [4],63
same,"Revertants per well TA98, Mean",[2]; [4],59*
"Cc1[nH]c2ccccc2c1CCNCc1ccc(/C=C/C(=O)NO)cc1 [LBH 589, reference compound]","Activation of Raf, MEK, and ERK","Raf, MEK, and ERK",showed similar activities in some of these Western blot assays
"[N-]=[N+]=[N-] [Sodium azide, reference compound]",Background Lawn TA100,[1]; [5],4/4
same,"Revertants per well TA100, well 1",[1]; [5],>300
same,"Revertants per well TA100, well 2",[1]; [5],>300
same,"Revertants per well TA100, Mean",[1]; [5],>300*

# From patent publication US11654136B2, “Phosphoinositide 3-kinase inhibitor with a zinc binding moiety” (Curis, Inc., priority 2011, dated 2023)
